Legend:
dayflower, VA = test: Test F preemergence; assay type: in vivo, Commelina virginica
From the text: (§1) Seeds of plant species selected from corn (Zea mays), soybean (Glycine max), velvetleaf (Abutilon theophrasti), lambsquarters (Chenopodium album), wild poinsettia (Euphorbia heterophylla), pigweed, palmer (palmer pigweed, Amaranthus palmeri), common waterhemp (Amaranthus rudis), surinam grass (Brachiaria decumbens), large crabgrass (Digitaria sanguinalis), crabgrass, Brazil (Brazilian crabgrass, Digitaria horizontalis), fall panicum (Panicum dichotomiflorum), giant foxtail (Setaria faberii), green foxtail (Setaria viridis), goosegrass (Eleusine indica), johnsongrass (Sorghum halepense), common ragweed (Ambrosia elation), barnyardgrass (Echinochloa crus-galli), southern sandbur (Cenchrus echinatus), arrowleaf sida (Sida rhombifolia), Italian ryegrass (Lolium multiflorum), dayflower, VA (Virginia (VA) dayflower, Commelina virginica), field bindweed (Convolvulus arvensis), cocklebur (common cocklebur, Xanthium strumarium), morningglory (Ipomoea coccinea), nightshade (eastern black nightshade, Solanum ptycanthum), kochia (Kochia scoparia), yellow nutsedge (Cyperus esculentus), and hairy beggarticks (Bidens pilosa), were planted into a silt loam soil and treated preemergence with test chemicals formulated in a non-phytotoxic solvent mixture which included a surfactant.
(§2) At the same time, plants from these crop and weed species and also horseweed (Canada horseweed, Conyza canadensis), smartweed (ladysthumb smartweed, Polygonum persicaria), waterhemp_RES1, (ALS & Triazine resistant common waterhemp, Amaranthus rudis), and waterhemp_RES2, (ALS & HPPD resistant common waterhemp, Amaranthus rudis) were treated with postemergence applications of test chemicals formulated in the same manner. Plants ranged in height from 2 to 18 cm for postemergence treatments (1- to 4-leaf stage). Treated plants and controls were maintained in a greenhouse for 14 to 21 days, after which time all species were compared to controls and visually evaluated. Plant response ratings, summarized in Table F, are based on a scale of 0 to 100 where 0 is no effect and 100 is complete control. A dash (-) response means no test result.

radish, wild [1] = test: Test D postemergence; assay type: in vivo, Raphanus raphanistrum; conditions: scale 0 to 100
From the text: (§3) Seeds of plant species selected from bluegrass (annual bluegrass, Poa annua), blackgrass (Alopecurus myosuroides), canarygrass (littleseed canarygrass, Phalaris minor), chickweed (common chickweed, Stellaria media), galium (catchweed bedstraw, Galium aparine), bromegrass, downy (downy bromegrass, Bromus tectorum), field poppy (Papaver rhoeas), field violet (Viola arvensis), foxtail, green (green foxtail, Setaria viridis), deadnettle (henbit deadnettle, Lamium amplexicaule), ryegrass, Italian (Italian ryegrass, Lolium multiflorum), kochia (Kochia scoparia), lambsquarters (Chenopodium album), oilseed rape (Brassica napus), pigweed (redroot pigweed, Amaranthus retroflexus), chamomile (scentless chamomile, Matricaria inodora), speedwell (bird's-eye speedwell, Veronica persica), barley, spring (spring barley, Hordeum vulgare), wheat, spring (spring wheat, Triticum aestivum), buckwheat, wild (wild buckwheat, Polygonum convolvulus), mustard, wild (wild mustard, Sinapis arvensis), oat, wild (wild oat, Avena fatua), radish, wild (wild radish, Raphanus raphanistrum), windgrass (Apera spica-venti), Russian thistle (Salsola kali), barley, winter (winter barley, Hordeum vulgare), and wheat, winter (winter wheat, Triticum aestivum) were planted into a silt loam soil and treated preemergence with test chemicals formulated in a non-phytotoxic solvent mixture which included a surfactant.
(§4) At the same time, these species were planted in pots containing Redi-Earth® planting medium (Scotts Company, 14111 Scottslawn Road, Marysville, Ohio 43041) comprising spaghnum peat moss, vermiculite, wetting agent and starter nutrients and treated with postemergence applications of the test chemicals formulated in the same manner. Plants ranged in height from 2 to 18 cm (1- to 4-leaf stage). Treated plants and controls were maintained in a controlled growth environment for 14 to 21 days after which time all species were compared to controls and visually evaluated. Plant response ratings, summarized in Table D, are based on a scale of 0 to 100 where 0 is no effect and 100 is complete control. A dash (-) response means no test result.

barley, winter = test: Test D preemergence; assay type: in vivo, Hordeum vulgare; conditions: scale 0 to 100
Summary of the method: (§5)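 Visual 0-100 rating (100 = complete control) against untreated plants, made 14 to 21 days after treatment in a controlled environment. Compounds, formulated with surfactant in non-phytotoxic solvent, were applied either to seeds just sown in silt loam or to 1- to 4-leaf plants (2 to 18 cm) grown in peat-based medium.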

barley, spring = test: Test D preemergence; assay type: in vivo, Hordeum vulgare; conditions: scale 0 to 100
Summary of the method: as §5

oat, wild = test: Test D postemergence; assay type: in vivo, Avena fatua; conditions: scale 0 to 100
Summary of the method: as §5

crabgrass, Brazil = test: Test F preemergence; assay type: in vivo, Digitaria horizontalis
From the text: as §1, §2

foxtail, green = test: Test D preemergence; assay type: in vivo, Setaria viridis; conditions: scale 0 to 100
From the text: as §3, §4

mustard, wild = test: Test D postemergence; assay type: in vivo, Sinapis arvensis; conditions: scale 0 to 100
From the text: as §3, §4

hairy beggarticks = test: Test F preemergence; assay type: in vivo, Bidens pilosa
From the text: as §1, §2

morningglory = test: Test F preemergence; assay type: in vivo, Ipomoea coccinea
From the text: as §1, §2

common waterhemp = test: Test F preemergence; assay type: in vivo, Amaranthus rudis
Summary of the method: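 Test chemicals in a non-phytotoxic solvent with surfactant were applied preemergence to seeds sown in silt loam, or postemergence to plants 2–18 cm tall (1- to 4-leaf stage). Plants were kept in a greenhouse for 14–21 days and then rated visually against controls on a 0 (no effect) to 100 (complete control) scale.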

field poppy = test: Test D preemergence; assay type: in vivo, Papaver rhoeas; conditions: scale 0 to 100
From the text: as §3, §4

radish, wild [2] = test: Test D preemergence; assay type: in vivo, Raphanus raphanistrum; conditions: scale 0 to 100
From the text: as §3, §4

Italian ryegrass = test: Test F preemergence; assay type: in vivo, Lolium multiflorum
From the text: as §1, §2

[3] = Preemergence, 31 g ai/ha, scale 0 to 100
[4] = Preemergence, 62 g ai/ha, scale 0 to 100
[5] = Preemergence, 125 g ai/ha, scale 0 to 100
[6] = preemergence, 8 g ai/ha, scale 0 to 100, 100 is complete control
[7] = preemergence, 16 g ai/ha, scale 0 to 100, 100 is complete control

## CCc1cc(C(=O)NCC(F)(F)F)nn1Cc1ccnc(C(F)(F)F)c1 [Compound 78, 5-ethyl-N-(2,2,2-trifluoroethyl)-1-[[(2-trifluoromethyl)-4-pyridinyl]methyl]-1H-pyrazole-3-carboxamide]
dayflower, VA; [3]
  Plant response rating, Dayflower, VA: 50
dayflower, VA; [4]
  Plant response rating, Dayflower, VA: 95
dayflower, VA; [5]
  Plant response rating, Dayflower, VA: 100
dayflower, VA; [6]
  Plant response rating, Dayflower, VA: 0
dayflower, VA; [7]
  Plant response rating, Dayflower, VA: 0
radish, wild [1]; Postemergence, 31 g ai/ha
  Radish, Wild plant response rating: 40
radish, wild [1]; Postemergence, 125 g ai/ha
  Radish, Wild plant response rating: 60
radish, wild [1]; Postemergence, 250 g ai/ha
  Radish, Wild plant response rating: 75
radish, wild [1]; postemergence, 62 g ai/ha
  Radish, Wild plant response rating: 50
barley, winter; 31 g ai/ha
  Plant response rating, Barley, Winter: 25
barley, winter; 62 g ai/ha
  Plant response rating, Barley, Winter: 50
barley, winter; 125 g ai/ha
  Plant response rating, Barley, Winter: 65
barley, winter; 250 g ai/ha
  Plant response rating, Barley, Winter: 95
barley, spring; 31 g ai/ha
  Plant response rating, Barley, Spring: 20
barley, spring; 62 g ai/ha
  Plant response rating, Barley, Spring: 65
barley, spring; 125 g ai/ha
  Plant response rating, Barley, Spring: 90
barley, spring; 250 g ai/ha
  Plant response rating, Barley, Spring: 100
oat, wild; Postemergence, 31 g ai/ha
  Oat, Wild plant response rating: 15
oat, wild; Postemergence, 125 g ai/ha
  Oat, Wild plant response rating: 25
oat, wild; Postemergence, 250 g ai/ha
  Oat, Wild plant response rating: 40
oat, wild; postemergence, 62 g ai/ha
  Oat, Wild plant response rating: 20
crabgrass, Brazil; [3]
  Plant response rating, Crabgrass, Brazil: 100
crabgrass, Brazil; [4]
  Plant response rating, Crabgrass, Brazil: 100
crabgrass, Brazil; [5]
  Plant response rating, Crabgrass, Brazil: 100
crabgrass, Brazil; [6]
  Plant response rating, Crabgrass, Brazil: 30
crabgrass, Brazil; [7]
  Plant response rating, Crabgrass, Brazil: 70
foxtail, green; 31 g ai/ha
  Plant response rating, Foxtail, Green: 50
foxtail, green; 62 g ai/ha
  Plant response rating, Foxtail, Green: 100
foxtail, green; 125 g ai/ha
  Plant response rating, Foxtail, Green: 100
foxtail, green; 250 g ai/ha
  Plant response rating, Foxtail, Green: 100
mustard, wild; Postemergence, 31 g ai/ha
  Mustard, Wild plant response rating: 40
mustard, wild; Postemergence, 125 g ai/ha
  Mustard, Wild plant response rating: 90
mustard, wild; Postemergence, 250 g ai/ha
  Mustard, Wild plant response rating: 90
mustard, wild; postemergence, 62 g ai/ha
  Mustard, Wild plant response rating: 70
Hairy beggarticks; [3]
  Plant response rating, Hairy Beggarticks: 25
Hairy beggarticks; [4]
  Plant response rating, Hairy Beggarticks: 35
Hairy beggarticks; [5]
  Plant response rating, Hairy Beggarticks: 80
Hairy beggarticks; [6]
  Plant response rating, Hairy Beggarticks: 0
Hairy beggarticks; [7]
  Plant response rating, Hairy Beggarticks: 20
morningglory; [3]
  Plant response rating, Morningglory: 100
morningglory; [4]
  Plant response rating, Morningglory: 90
morningglory; [5]
  Plant response rating, Morningglory: 100
morningglory; [6]
  Plant response rating, Morningglory: 0
morningglory; [7]
  Plant response rating, Morningglory: 40
Common waterhemp; [3]
  Plant response rating, Common Waterhemp: 100
Common waterhemp; [4]
  Plant response rating, Common Waterhemp: 100
Common waterhemp; [5]
  Plant response rating, Common Waterhemp: 100
Common waterhemp; [6]
  Plant response rating, Common Waterhemp: 65
Common waterhemp; [7]
  Plant response rating, Common Waterhemp: 100
Field poppy; 31 g ai/ha
  Plant response rating, Field Poppy: 100
Field poppy; 62 g ai/ha
  Plant response rating, Field Poppy: 100
Field poppy; 125 g ai/ha
  Plant response rating, Field Poppy: 100
Field poppy; 250 g ai/ha
  Plant response rating, Field Poppy: 100
radish, wild [2]; 31 g ai/ha
  Plant response rating, Radish, Wild: 100
radish, wild [2]; 62 g ai/ha
  Plant response rating, Radish, Wild: 100
radish, wild [2]; 125 g ai/ha
  Plant response rating, Radish, Wild: 100
radish, wild [2]; 250 g ai/ha
  Plant response rating, Radish, Wild: 100
Italian ryegrass; [3]
  Plant response rating, Italian Ryegrass: 5
Italian ryegrass; [4]
  Plant response rating, Italian Ryegrass: 60
Italian ryegrass; [5]
  Plant response rating, Italian Ryegrass: 90
Italian ryegrass; [6]
  Plant response rating, Italian Ryegrass: 0
Italian ryegrass; [7]
  Plant response rating, Italian Ryegrass: 0
